Measurements published in BindingDB's records for PubMed 8474008 (Virginia Commonwealth University, 1993).
“And” between values parts separate entries of the source, which are not always exact repeats. Equal values may be shown once.

Each compound was assayed against Cannabinoid receptor 1 (Rattus norvegicus, UniProt P20272).
Chain of Cannabinoid receptor 1 (P20272 whole entry): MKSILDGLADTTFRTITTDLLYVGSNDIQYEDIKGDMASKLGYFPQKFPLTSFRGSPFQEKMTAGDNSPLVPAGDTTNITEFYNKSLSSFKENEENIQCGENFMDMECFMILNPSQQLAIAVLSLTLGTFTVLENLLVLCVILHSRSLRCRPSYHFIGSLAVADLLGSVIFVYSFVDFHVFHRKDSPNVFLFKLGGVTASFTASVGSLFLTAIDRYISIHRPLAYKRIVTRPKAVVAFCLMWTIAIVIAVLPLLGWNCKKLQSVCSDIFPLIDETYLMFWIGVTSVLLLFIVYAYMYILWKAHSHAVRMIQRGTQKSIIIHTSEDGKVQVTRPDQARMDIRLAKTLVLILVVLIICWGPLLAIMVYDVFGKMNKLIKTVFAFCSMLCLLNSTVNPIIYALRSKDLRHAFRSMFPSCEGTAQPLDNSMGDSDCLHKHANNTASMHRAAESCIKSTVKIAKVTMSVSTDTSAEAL

Q: Which Ki does the source give for `C=C(C)C1CCC(C)=CC1c1c(O)cc(O)cc1CCCCC` (stereo unspecified) [NSC_3060519] here?
A: > 10000 nM

Q: With `CC1=C[C@H]2c3c(O)cc(CCCCCBr)cc3OC(C)(C)[C@@H]2CC1` [THC, 5'-Br] as the compound, how does the Ki read?
A: 7.63 nM

Q: For `CCCCCCCCCCC(C)(C)c1ccc([C@H]2CCC[C@@H](O)C2)c(O)c1` [Bicyclic analogs X], which Ki is on record?
A: 381 nM

Q: Which Ki does the source give for `CCCCCCC(C)(C)c1ccc([C@@H]2C[C@H](O)CC[C@H]2CCCCO)c(O)c1` [Bicyclic analogs XVI] here?
A: 1.55 nM

Q: With `CCCCCCC(C)(C)c1cc(O)c2c(c1)OC(C)(C)[C@@H]1CCC(=O)C[C@@H]21` [(6aR,10aR)-3-(1,1-Dimethyl-heptyl)-1-hydroxy-6,6-dimethyl-6,6a,7,8,10,10a-hexahydro-benzo[c]chromen-9-one] as the compound, how does the Ki read?
A: 22.3 nM

Q: `CC(C)(C)c1ccc([C@H]2CCC[C@@H](O)C2)c(O)c1` [Bicyclic analogs I] was tested. Which Ki did it give?
A: > 10000 nM

Q: With `CCCCCc1cc(OCCCN)c2c(c1)OC(C)(C)[C@@H]1CCC(C)=C[C@@H]21` [THC, 1-O-(3-Aminopropyl)] as the compound, how does the Ki read?
A: > 10000 nM

Q: With `CCCCCc1cc(O)c2c(c1)OC(C)(C)C1CCC(C)(O)CC21` (stereo unspecified) [NSC_169742] as the compound, how does the Ki read?
A: 124 nM and 171 nM

Q: For `CC1=C[C@H]2c3c(O)cc(CCCCCF)cc3OC(C)(C)[C@@H]2CC1` [THC, 5'-F], which Ki is on record?
A: 57 nM

Q: With `CCCCC[C@@H](C)[C@H](C)c1cc(O)c2c(c1)OC(C)(C)[C@@H]1CC=C(C)C[C@@H]21` as the compound, how does the Ki read?
A: 1.59 nM

Q: `CCCCCCCCC(C)(C)c1ccc([C@H]2CCC[C@@H](O)C2)c(O)c1` [Bicyclic analogs VIII] was tested. Which Ki did it give?
A: 28.5 nM

Q: For `CCCCCCCC(C)(C)c1ccc([C@H]2CCC[C@@H](O)C2)c(O)c1` [Bicyclic analogs VII], which Ki is on record?
A: 4.73 nM

Q: With `CCCCCc1cc(OC)c2c(c1)OC(C)(C)[C@@H]1CCC(C)=C[C@@H]21` [THC, 1-O-methyl-delta 9] as the compound, how does the Ki read?
A: > 10000 nM

Q: `CC1(C)Oc2cc(CCCCC[N+](C)(C)C)cc(O)c2[C@@H]2C=C(CO)CC[C@H]21` [THC, 11-OH-5'-TMA] was tested. Which Ki did it give?
A: 2110 nM

Q: With `CCCCCc1cc(O)c2c(c1)OC(C)(C)[C@@H]1CCC(C)=C(CO)[C@@H]21` [THC, O, 10-Methano] as the compound, how does the Ki read?
A: > 10000 nM

Q: For `CCCCCCC(C)(C)c1ccc([C@@H]2C[C@H](O)CC[C@H]2C)c(O)c1` [Bicyclic analogs XI], which Ki is on record?
A: 6.15 nM and 7.7 nM

Q: `CCCCCCCCCC(C)(C)c1ccc([C@H]2CCC[C@@H](O)C2)c(O)c1` [Bicyclic analogs IX] was tested. Which Ki did it give?
A: 163 nM

Q: With `CCCCCc1cc(OCCCCN)c2c(c1)OC(C)(C)[C@@H]1CCC(C)=C[C@@H]21` [THC, 1-O-(4-Aminobutyl)] as the compound, how does the Ki read?
A: > 10000 nM

Q: For `CCCCCc1cc(OCCCCCCN)c2c(c1)OC(C)(C)[C@@H]1CCC(C)=C[C@@H]21` [THC, 1-O-(6-Aminohexyl)], which Ki is on record?
A: 1730 nM

Q: For `CCCCCc1cc(OC(N)=O)c2c(c1)OC(C)(C)[C@@H]1CCC(C)=C[C@@H]21` [THC, 1-O-Carbamoyl], which Ki is on record?
A: > 10000 nM

Q: With `CCCCCCC(C)(C)c1ccc([C@H]2CCC[C@@H](O)C2)c(O)c1` [CP-47,497] as the compound, how does the Ki read?
A: 735 nM

Q: For `CCCCCc1cc(O)c2c(c1)OC(C)(C)[C@@H]1CCC(C(=O)O)=C[C@@H]21` [THC, 9-Nor-9-carboxy-delta 9], which Ki is on record?
A: > 10000 nM

Q: `CCCCCCC(C)(C)c1cc(O)c2c(c1)OC(C)(C)[C@@H]1CCC(CO)=CC21` (stereo partly specified) [(3-(1,1-Dimethyl-heptyl)-9-hydroxymethyl-6,6-dimethyl-6a,7,8,10a-tetrahydro-6H-benzo[c]chromen-1-ol (HU210)] was tested. Which Ki did it give?
A: 126 nM

Q: How did the Ki turn out when `CC1=C[C@H]2c3c(O)cc(CCCCCI)cc3OC(C)(C)[C@@H]2CC1` [THC, 5'-I] was run?
A: 7.77 nM

Q: With `CCCCC(C)(C)c1ccc([C@H]2CCC[C@@H](O)C2)c(O)c1` [Bicyclic analogs IV] as the compound, how does the Ki read?
A: 9.54 nM

Q: `CCCCCc1cc(O)c2c(c1)OC(C)(C)[C@@H]1CCC(CO)=C[C@@H]21` [THC, 11-OH-delta 9] was tested. Which Ki did it give?
A: 38.4 nM

Q: Which Ki does the source give for `CC1=C[C@H]2c3c(O)cc(CCCCCO)cc3OC(C)(C)[C@@H]2CC1` [THC, 5'-OH] here?
A: 87.6 nM

Q: For `CCCCCC(C)C(C)c1cc(O)c2c(c1)OC(C)(C)C1=C2CC(C)CC1` (stereo unspecified) [DMHP, 1', 2'], which Ki is on record?
A: 1.56 nM

Q: `CCC(C)(C)c1ccc([C@H]2CCC[C@@H](O)C2)c(O)c1` [Bicyclic analogs II] was tested. Which Ki did it give?
A: > 10000 nM

Q: Which Ki does the source give for `CCCCCc1cc(OC(C)C)c2c(c1)OC(C)(C)[C@@H]1CCC(C)=C[C@@H]21` [THC, O, 2-propano] here?
A: > 10000 nM

Q: For `OCCC[C@@H]1CC[C@@H](O)C[C@H]1c1ccccc1O` [Bicyclic analogs XIII], which Ki is on record?
A: > 10000 nM

Q: Which Ki does the source give for `CCCC(C)(C)c1ccc([C@H]2CCC[C@@H](O)C2)c(O)c1` [Bicyclic analogs III] here?
A: 3760 nM

Q: Which Ki does the source give for `C=C1CC[C@@H]2[C@@H](C1)c1c(OC)cc(CCCCC)cc1OC2(C)C` [THC, 1-O-methyl-delta 9,11] here?
A: 827 nM

Q: With `CC1=C[C@H]2c3c(O)cc(CCCCC(F)(F)F)cc3OC(C)(C)[C@@H]2CC1` [THC, 5'-F3] as the compound, how does the Ki read?
A: 19.9 nM

Q: Which Ki does the source give for `CCCCCC(C)(C)c1ccc([C@H]2CCC[C@@H](O)C2)c(O)c1` [Bicyclic analogs V] here?
A: 126 nM

Q: `CCCCCc1cc(O)c2c(c1)OC(C)(C)[C@@H]1C[C@@H](O)C(C)=C[C@@H]21` [THC, 8 beta-OH] was tested. Which Ki did it give?
A: 820 nM

Q: With `CCCCCc1cc(OC)c2c(c1)OC(C)(C)[C@@H]1CCC(CF)=C[C@@H]21` [THC, 11-F] as the compound, how does the Ki read?
A: 107 nM

Q: `CCCCCCC(C)(C)c1cc(O)c2c(c1)OC(C)(C)[C@H]1CCC(CO)=C[C@H]21` [THC-DMH, (-)-11-OH] was tested. Which Ki did it give?
A: 0.72 nM

Q: How did the Ki turn out when `CCCCCCC(C)(C)c1cc(OCc2ccc(-c3ccccc3)cc2)c2c(c1)OC(C)(C)[C@@H]1CCC(CO)=C[C@@H]21` [THC, 1-O-biphenylmethyl-delta 8] was run?
A: > 10000 nM

Q: `C=C1CC[C@@H]2[C@@H](C1)c1c(OC)cc(CCC(CC)CCC)cc1OC2(C)C` (stereo partly specified) [THC, 1-O-Methyl-3-(norpentyl)-3-propyl] was tested. Which Ki did it give?
A: > 10000 nM

Q: `C=C1CC[C@@H]2[C@@H](C1)c1c(O)cc(CCC(CC)CCC)cc1OC2(C)C` (stereo partly specified) [THC, 3-(Norpentyl)-3-propyl] was tested. Which Ki did it give?
A: 968 nM
